Experimental findings from patent US6939858B2, “Malto-oligosaccharide derivatives and use thereof” (Kikkoman Corporation, priority 2000, dated 2005) are described below.

For assay [1], the target named is T1, HPA (α-amylase derived from human pancreatic juice) (Homo sapiens, UniProt P04746).
T1 construct: purchased International Reagents Corp., Japan Calibzyme·AMY
T1 sequence (P04746 16-511): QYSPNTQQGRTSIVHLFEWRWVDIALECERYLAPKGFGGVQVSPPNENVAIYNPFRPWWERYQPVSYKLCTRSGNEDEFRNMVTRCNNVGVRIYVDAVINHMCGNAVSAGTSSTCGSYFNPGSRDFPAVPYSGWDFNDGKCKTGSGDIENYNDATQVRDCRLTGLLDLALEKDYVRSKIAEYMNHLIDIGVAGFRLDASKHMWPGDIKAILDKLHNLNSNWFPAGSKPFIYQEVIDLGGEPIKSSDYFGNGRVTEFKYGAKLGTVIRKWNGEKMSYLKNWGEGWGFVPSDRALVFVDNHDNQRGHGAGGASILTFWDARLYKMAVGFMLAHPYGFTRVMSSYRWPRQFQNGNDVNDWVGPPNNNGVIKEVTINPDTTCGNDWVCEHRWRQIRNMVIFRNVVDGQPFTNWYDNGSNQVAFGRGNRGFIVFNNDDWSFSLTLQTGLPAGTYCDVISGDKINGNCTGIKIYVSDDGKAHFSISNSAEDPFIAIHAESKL
Description: Inhibition of human α-amylase activity in vitro (blue starch, Neo·Amylase Test), HPA. To be noted: final concentration of inhibitor reducing 50% of the activity of the HPA solution; 37° C., 30 minutes. In kind it is biochemical. On the procedure: (§1) Purified water was added to commercial HPA and HSA to dissolve them to a concentration of 350 IU/1 to prepare an α-amylase solution. “Calibzyme·AMY” (produced by International Reagents Corp., Japan) was used as this commercial human α-amylase. The α-amylase activity was determined with reference to the calibration curves of a commercial α-amylase determining reagent “Neo·Amylase Test, Daiichi” (produced by Daiichi Pure Chemicals Co., Ltd., Japan).
(§2) To 100 μl of the HPA or HSA solution were added 3.0 ml of purified water, 1.0 ml of inhibitor solution and one tablet of blue starch of “Neo·Amylase Test, Daiichi” (produced by Daiichi Pure Chemicals Co., Ltd., Japan). After stirring by a mixer for about 10 seconds, the mixture was warmed at 37° C. for 30 minutes and then further stirred by adding 1.0 ml of a 0.5 N sodium hydroxide solution to cease the reaction, after which the solution was centrifuged (1,500 G, 5 min.) and absorbance of the supernatant at 620 nm was measured. As a blank, purified water was used instead of the inhibitor solution.

Assay [2] addresses T2, HSA (α-amylase derived from human salivary gland) (Homo sapiens, UniProt P0DUB6).
T2 construct: purchased International Reagents Corp., Japan Calibzyme·AMY
T2 sequence (P0DUB6 16-511): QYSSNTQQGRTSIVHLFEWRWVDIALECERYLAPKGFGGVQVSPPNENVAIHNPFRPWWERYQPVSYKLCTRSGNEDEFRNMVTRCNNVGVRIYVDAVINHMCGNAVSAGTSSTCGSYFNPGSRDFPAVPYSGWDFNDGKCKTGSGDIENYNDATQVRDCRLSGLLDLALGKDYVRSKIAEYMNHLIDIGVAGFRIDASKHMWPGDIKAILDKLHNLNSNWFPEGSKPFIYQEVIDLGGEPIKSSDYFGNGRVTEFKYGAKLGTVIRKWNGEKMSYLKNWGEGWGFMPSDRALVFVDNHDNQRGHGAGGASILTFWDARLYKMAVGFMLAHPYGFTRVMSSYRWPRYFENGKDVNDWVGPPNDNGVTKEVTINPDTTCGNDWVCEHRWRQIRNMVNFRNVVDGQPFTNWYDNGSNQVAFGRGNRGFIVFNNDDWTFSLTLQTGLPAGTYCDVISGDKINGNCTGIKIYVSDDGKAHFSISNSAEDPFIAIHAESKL
The assay can be described thus: Inhibition of human α-amylase activity in vitro (blue starch, Neo·Amylase Test), HSA. In kind it is biochemical. To be noted: final concentration of inhibitor reducing 50% of the activity of the HSA solution; 37° C., 30 minutes. How it is done:
as §1, §2

A further assay deals with mice [Crj:CD-1 (ICR)]. The assay can be described thus: Anti-diabetic activity: blood glucose level after oral corn starch loading in mice. In kind it is in vivo. To be noted: mice unfed 20 hours; oral DOGGDN 10 mg, 5 mg and 1 mg with 2,000 mg corn starch per kg; 0.5-4.0 hours; t-test; FIG. 1.

Description for mice [Crj:CD-1 (ICR)]: Commercially available healthy mice [Crj:CD-1 (ICR) available from Japan Charles River Co., Ltd.
Blood was collected from the orbital veniplex of each mouse just before administration and after the lapse of 0.5 hour, 1.0 hour, 1.5 hours, 2.0 hours, 3.0 hours and 4.0 hours after administration, and the concentration of glucose in the blood [blood glucose level (mg/dl)] was measured to examine the inhibitory effect against rise of blood glucose level after intake of corn starch, i.e. the anti-diabetic action. The inhibitory effect against rise of blood sugar level was judged by the t-test. The glucose concentration in the blood was determined using a blood glucose level analyzer “[sequence]” [mfd. by Bayer Sankyo Co., Ltd.].

`OCC1NCC(O)C(O)C1OC1OC(CO)C(OC2OC(CO)C(O)C(O)C2O)C(O)C1O` (stereo not drawn) [GGDN, Maltosyl-deoxynojirimycin, reference compound]: the half-maximal inhibitory concentration (IC50) in assay [1] and in assay [2] was 0.26 mM each time.

`CC1OC(OC2C(CO)OC(OC3C(CO)NCC(O)C3O)C(O)C2O)C(O)C(O)C1OC1OC(CO)C(O)C(O)C1O` [GDOGGDN, O-(α-D-glucopyranosyl)-(1→4)-O-(6-deoxy-α-D-glucopyranosyl)-(1→4)-O-(α-D-glucopyranosyl)-(1→4)-deoxynojirimycin]: the figures for the IC50 in assay [1] and in assay [2] were 0.05 mM and 0.03 mM, respectively.

For `CC1OC(OC2C(CO)OC(OC3C(CO)NCC(O)C3O)C(O)C2O)C(O)C(O)C1O` [DOGGDN, O-(6-deoxy)-α-D-glucopyranosyl-(1→4)-O-(α-D-glucopyranosyl)-(1→4)-deoxynojirimycin], the “rise of blood glucose level as compared with the control group” value in the assay on mice [Crj:CD-1 (ICR)] was “reduced significantly”. Moreover, the IC50 (in general, the midpoint of a concentration-inhibition curve) in assay [2] turned out to be 0.03 mM.
